# Assay results published in patent publication US20230277569A1, “Compositions and Methods for Treating, Ameliorating and/or Preventing Cancer and Kits for the Same” (priority 2022, published 2023).
# Test: Phase I, cytochrome P450-mediated human liver microsome metabolism
# Settings: 0.5 μM; human liver microsomes
smiles,measurement,value
"Cc1ncc2n1-c1ccc(Cl)cc1C(c1ccccc1F)=NC2 [Midazolam, reference compound]",elimination rate constant (k),0.04
same,intrinsic clearance (CLint),3.23 mL/min/g
